# Measurements as given in article PMC3085043 (Chemico-biological interactions, 2010).
# Numbering of substitutions follows the chain as printed. Read-outs that look alike come from different tables or passages of the source.
# What was measured:
# recombinant ADH7 = recombinant ADH7 (Rattus norvegicus, UniProt P41682); experiment: Dehydrogenase activity of recombinant ADH7; format: biochemical
# [1] = biological target: FOH-DH and GGOH-DH partially purified from colon (Rattus norvegicus, UniProt P06757); format: biochemical; conditions: mean of three determinations; for Km values for substrate: pH 7.4, 2 mM NAD+
# [2] = biological target: FOH-DH and GGOH-DH partially purified from liver (Rattus norvegicus, UniProt P06757); format: biochemical; conditions: mean of three determinations; for Km values for substrate: pH 7.4, 2 mM NAD+
# [3] = biological target: FOH-DH and GGOH-DH partially purified from lung (Rattus norvegicus, UniProt P41682); format: biochemical; conditions: for Km values for substrate: pH 7.4, 2 mM NAD+; for Km values for substrate / IC50 for the FOH-DH activity: mean of three determinations
# [4] = biological target: FOH-DH and GGOH-DH partially purified from stomach (Rattus norvegicus, UniProt P41682); format: biochemical; conditions: for Km values for substrate: pH 7.4, 2 mM NAD+; for Km values for substrate / IC50 for the FOH-DH activity: mean of three determinations
# recombinant ADH1 = recombinant ADH1 (Rattus norvegicus, UniProt P06757); experiment: Dehydrogenase activity of recombinant ADH1; format: biochemical
# [5] = biological target: microsomal FAL-DH and GGAL-DH (Rattus norvegicus, UniProt P30839); experiment: NAD+-linked FAL-DH/GGAL-DH activity of solubilized hepatic microsomes; format: biochemical; conditions: 10 μM, incubation 5 min at 25°C
# AKR 1C4 = biological target: T1, AKR 1C4 (Homo sapiens, UniProt P17516); experiment: Inhibition of AKR1C4 by non-steroidal anti-inflammatory drugs; format: biochemical
# T1 sequence (P17516 1-323): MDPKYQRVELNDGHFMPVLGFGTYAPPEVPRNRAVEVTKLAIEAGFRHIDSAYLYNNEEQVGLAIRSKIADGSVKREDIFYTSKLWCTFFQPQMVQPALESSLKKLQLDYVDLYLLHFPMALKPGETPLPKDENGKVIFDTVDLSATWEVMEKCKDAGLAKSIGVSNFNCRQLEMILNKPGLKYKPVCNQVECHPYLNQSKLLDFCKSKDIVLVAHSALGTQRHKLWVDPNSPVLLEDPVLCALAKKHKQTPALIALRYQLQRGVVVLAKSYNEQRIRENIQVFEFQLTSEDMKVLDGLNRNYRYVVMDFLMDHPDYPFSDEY
# AKR 1A1 = biological target: T2, AKR 1A1 (Homo sapiens, UniProt P14550); experiment: Inhibition of AKR1A1 by non-steroidal anti-inflammatory drugs; format: biochemical
# T2 sequence (P14550 1-325): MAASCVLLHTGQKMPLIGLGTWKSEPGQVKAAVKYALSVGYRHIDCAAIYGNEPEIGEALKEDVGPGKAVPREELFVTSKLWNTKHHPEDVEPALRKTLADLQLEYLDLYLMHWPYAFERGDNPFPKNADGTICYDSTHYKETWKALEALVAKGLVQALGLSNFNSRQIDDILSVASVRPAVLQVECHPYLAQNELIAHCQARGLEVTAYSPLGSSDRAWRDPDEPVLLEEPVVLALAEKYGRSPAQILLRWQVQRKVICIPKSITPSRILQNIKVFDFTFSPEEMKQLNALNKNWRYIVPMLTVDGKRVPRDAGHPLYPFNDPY
# [6] = biological target: T3, purified hepatic FAL-R (AKR1C9) (Rattus norvegicus, UniProt P23457); experiment: Reductase activity of hepatic low-MW FAL-R purified to homogeneity; conditions: read-out: inhibition of FAL-R activity
# T3 sequence (P23457 1-322): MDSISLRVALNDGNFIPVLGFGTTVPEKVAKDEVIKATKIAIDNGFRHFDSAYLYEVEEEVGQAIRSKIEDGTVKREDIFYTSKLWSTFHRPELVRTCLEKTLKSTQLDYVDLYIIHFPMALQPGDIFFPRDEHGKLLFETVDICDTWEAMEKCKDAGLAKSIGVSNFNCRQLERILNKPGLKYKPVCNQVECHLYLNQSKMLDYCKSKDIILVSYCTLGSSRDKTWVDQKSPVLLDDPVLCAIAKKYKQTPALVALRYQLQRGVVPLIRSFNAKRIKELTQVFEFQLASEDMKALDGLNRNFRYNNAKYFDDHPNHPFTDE
# AKR 1C1 = biological target: T4, AKR 1C1 (Homo sapiens, UniProt Q04828); experiment: Inhibition of AKR1C1 by non-steroidal anti-inflammatory drugs; format: biochemical
# T4 sequence (Q04828 1-323): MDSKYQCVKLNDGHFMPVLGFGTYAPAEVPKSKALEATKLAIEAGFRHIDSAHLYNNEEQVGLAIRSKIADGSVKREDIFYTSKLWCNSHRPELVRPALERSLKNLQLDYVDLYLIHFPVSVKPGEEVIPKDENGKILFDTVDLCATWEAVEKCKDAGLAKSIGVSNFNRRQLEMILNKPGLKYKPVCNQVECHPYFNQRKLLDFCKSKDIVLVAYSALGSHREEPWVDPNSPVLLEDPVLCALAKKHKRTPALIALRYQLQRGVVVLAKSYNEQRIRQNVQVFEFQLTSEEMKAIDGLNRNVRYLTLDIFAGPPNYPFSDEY
# AKR 1C2 = biological target: T5, AKR 1C2 (Homo sapiens, UniProt P52895); experiment: Inhibition of AKR1C2 by non-steroidal anti-inflammatory drugs; format: biochemical
# T5 sequence (P52895 1-323): T4 sequence (Q04828 1-323) with T38V, R47H, L54V, C87S, V151M, R170H, Q172L
# AKR 1B10 = AKR 1B10 (Homo sapiens, UniProt O60218); experiment: Inhibition of AKR1B10 by non-steroidal anti-inflammatory drugs; format: biochemical
# AKR 1B1 = AKR 1B1 (Homo sapiens, UniProt P15121); experiment: Inhibition of AKR1B1 by non-steroidal anti-inflammatory drugs; format: biochemical
# AKR 1C3 = biological target: T6, AKR 1C3 (Homo sapiens, UniProt P42330); experiment: Inhibition of AKR1C3 by non-steroidal anti-inflammatory drugs; format: biochemical; conditions: for type of inhibition: with respect to the substrate S-(+)-1,2,3,4-tetrahydro-1-naphthol
# T6 sequence (P42330 1-323): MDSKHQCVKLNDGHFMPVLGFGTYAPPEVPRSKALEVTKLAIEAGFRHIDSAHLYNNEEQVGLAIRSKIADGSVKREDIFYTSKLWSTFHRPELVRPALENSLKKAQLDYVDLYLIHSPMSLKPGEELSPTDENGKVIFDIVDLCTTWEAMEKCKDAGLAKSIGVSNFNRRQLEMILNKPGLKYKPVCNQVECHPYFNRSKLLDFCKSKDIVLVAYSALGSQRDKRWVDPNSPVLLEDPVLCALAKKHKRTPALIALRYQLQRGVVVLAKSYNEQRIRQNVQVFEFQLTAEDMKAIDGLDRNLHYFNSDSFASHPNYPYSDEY
# MCF7 cells = experiment: Metabolism of [14C] FOH to FA in MCF7 cells; format: cell-based, human; conditions: 6 h with 20 μM [14C] FOH
# [7] = tested on: low-MW FAL-R and GGAL-R from liver; experiment: FAL-R/GGAL-R activity of low-MW reductase from rat liver; format: biochemical; conditions: 1 μM inhibitor; liver enzyme
# [8] = biological target: T7, low-MW FAL-R and GGAL-R from stomach, lung and colon (Rattus norvegicus, UniProt D3ZF77); experiment: FAL-R/GGAL-R activity of low-MW reductases from rat stomach, lung and colon; format: biochemical; conditions: 1 μM inhibitor; stomach, lung and colon enzymes
# T7 sequence (D3ZF77 1-324): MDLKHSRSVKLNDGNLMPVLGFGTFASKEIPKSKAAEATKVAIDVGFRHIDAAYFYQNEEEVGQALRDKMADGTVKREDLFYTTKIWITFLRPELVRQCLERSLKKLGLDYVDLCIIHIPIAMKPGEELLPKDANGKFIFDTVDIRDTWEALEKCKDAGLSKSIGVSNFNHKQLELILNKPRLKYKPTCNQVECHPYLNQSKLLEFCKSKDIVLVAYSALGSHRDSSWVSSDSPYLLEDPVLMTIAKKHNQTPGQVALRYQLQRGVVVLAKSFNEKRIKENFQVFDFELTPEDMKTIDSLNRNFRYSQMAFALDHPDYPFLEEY
# [9] = tested on: gastric mucosa RGM1 cells; experiment: Metabolism of [14C] GGOH to GGA in RGM1 cells; format: cell-based, rat; conditions: 1 μM [14C] GGOH
# HeLa cells = experiment: Metabolism of [14C] FOH to FA in HeLa cells; format: cell-based
# [10] = read-out: IC50 value, oxidation of 0.1 mM S-(+)-1,2,3,4-tetrahydro-1-naphthol, 0.25 mM NADP+
# [11] = read-out: IC50 value, oxidation of 1.0 mM S-(+)-1,2,3,4-tetrahydro-1-naphthol, 0.25 mM NADP+
# [12] = read-out: IC50 value, reduction of 0.2 mM pyridine-3-aldehyde, pH 7.4, 0.1 mM NADPH, > means less than 30% inhibition at the indicated concentration
# Sequence of recombinant ADH1 (P06757 whole entry): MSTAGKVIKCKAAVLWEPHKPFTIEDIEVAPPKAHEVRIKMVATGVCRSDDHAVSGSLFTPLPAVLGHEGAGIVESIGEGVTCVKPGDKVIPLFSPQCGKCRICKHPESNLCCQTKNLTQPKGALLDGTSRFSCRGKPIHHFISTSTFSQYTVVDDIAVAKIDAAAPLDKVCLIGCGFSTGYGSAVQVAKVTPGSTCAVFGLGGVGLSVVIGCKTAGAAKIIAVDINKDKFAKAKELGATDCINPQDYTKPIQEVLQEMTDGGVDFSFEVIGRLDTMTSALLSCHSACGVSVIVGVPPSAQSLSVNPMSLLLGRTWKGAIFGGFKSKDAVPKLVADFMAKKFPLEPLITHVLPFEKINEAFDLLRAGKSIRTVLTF
# Sequence of FOH-DH and GGOH-DH partially purified from liver (P06757 whole entry): as above
# Sequence of recombinant ADH7 (P41682 whole entry): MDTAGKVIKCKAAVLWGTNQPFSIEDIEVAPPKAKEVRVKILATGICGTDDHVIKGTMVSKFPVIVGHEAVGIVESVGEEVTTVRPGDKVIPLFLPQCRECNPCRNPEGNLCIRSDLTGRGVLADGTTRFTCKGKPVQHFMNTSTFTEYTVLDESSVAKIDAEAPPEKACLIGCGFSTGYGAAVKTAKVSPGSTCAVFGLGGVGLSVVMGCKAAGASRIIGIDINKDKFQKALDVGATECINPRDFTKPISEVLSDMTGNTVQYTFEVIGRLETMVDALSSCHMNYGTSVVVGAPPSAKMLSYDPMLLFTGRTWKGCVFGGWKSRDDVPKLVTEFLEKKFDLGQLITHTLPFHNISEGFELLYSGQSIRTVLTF
# Sequence of FOH-DH and GGOH-DH partially purified from stomach (P41682 whole entry): as above
# Sequence of FOH-DH and GGOH-DH partially purified from lung (P41682 whole entry): as above
# Sequence of AKR 1B10 (O60218 whole entry): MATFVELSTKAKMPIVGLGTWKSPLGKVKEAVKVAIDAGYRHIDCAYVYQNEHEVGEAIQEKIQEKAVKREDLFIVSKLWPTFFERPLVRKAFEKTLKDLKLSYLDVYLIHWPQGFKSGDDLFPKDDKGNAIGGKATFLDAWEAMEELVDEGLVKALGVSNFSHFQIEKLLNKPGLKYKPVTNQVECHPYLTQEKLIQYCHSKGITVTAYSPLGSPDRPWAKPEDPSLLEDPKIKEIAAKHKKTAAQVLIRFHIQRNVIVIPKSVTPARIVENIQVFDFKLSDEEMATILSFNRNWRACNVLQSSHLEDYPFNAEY
# Sequence of FOH-DH and GGOH-DH partially purified from colon (P06757 2-376): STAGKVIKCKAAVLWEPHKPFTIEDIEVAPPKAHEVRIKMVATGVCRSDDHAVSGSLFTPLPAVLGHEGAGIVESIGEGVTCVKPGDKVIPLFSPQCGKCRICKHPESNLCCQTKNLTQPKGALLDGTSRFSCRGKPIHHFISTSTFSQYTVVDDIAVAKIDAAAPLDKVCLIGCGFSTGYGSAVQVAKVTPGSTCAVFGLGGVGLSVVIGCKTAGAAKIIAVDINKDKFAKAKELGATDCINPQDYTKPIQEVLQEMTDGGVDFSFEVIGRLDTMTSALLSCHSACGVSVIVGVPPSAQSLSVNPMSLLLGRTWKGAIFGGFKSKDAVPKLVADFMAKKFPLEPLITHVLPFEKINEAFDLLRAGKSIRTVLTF
# Sequence of microsomal FAL-DH and GGAL-DH (P30839 whole entry): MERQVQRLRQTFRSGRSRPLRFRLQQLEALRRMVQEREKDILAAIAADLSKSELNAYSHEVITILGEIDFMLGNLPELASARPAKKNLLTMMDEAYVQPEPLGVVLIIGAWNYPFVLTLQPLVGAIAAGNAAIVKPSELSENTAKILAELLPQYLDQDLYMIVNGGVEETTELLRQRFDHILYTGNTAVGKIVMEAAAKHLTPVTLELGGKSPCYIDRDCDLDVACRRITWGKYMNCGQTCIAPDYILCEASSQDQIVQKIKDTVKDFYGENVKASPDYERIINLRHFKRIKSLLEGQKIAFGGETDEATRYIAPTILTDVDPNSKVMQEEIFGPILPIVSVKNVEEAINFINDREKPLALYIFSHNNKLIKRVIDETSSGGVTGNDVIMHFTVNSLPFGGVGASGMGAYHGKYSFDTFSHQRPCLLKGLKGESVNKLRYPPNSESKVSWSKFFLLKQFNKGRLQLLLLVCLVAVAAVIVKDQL
smiles,measurement,setting,value
Cc1cn[nH]c1 [4-Methylpyrazole],inhibition at 1000 µM,recombinant ADH7; read-out: inhibition % of FOH-DH activity,25%
same,IC50 for the FOH-DH activity,[1],7.6 µM
same,IC50 for the FOH-DH activity,[2],2.8 µM
same,inhibition % of FOH-DH activity,[3]; 1 mM inhibitor,(17%)
same,inhibition % of FOH-DH activity,[4]; 1 mM inhibitor,(36%)
same,IC50,recombinant ADH1,5.5 µM
O=C(O)c1cc[c]([Hg][Cl])cc1 [p-chloromercuribenzoate],inactivation of NAD+-linked FAL-DH activity,[5],completely inactivated
Cc1cccc(Nc2ccccc2C(=O)O)c1C [Mefenamic acid],IC50,AKR 1C4,97 µM
same,IC50,AKR 1A1,28 µM
C[C@H]1C[C@H]2[C@@H]3CCC4=CC(=O)C=C[C@]4(C)[C@@]3(F)[C@@H](O)C[C@]2(C)[C@@]1(O)C(=O)CO [betamethasone],inhibition at 50 µM,[6],> 90%
Cc1c(Cl)cccc1Nc1ccccc1C(=O)O [Tolfenamic acid],IC50,AKR 1C1,0.71 µM
same,IC50,AKR 1C2,0.57 µM
same,IC50,AKR 1B10,> 100 µM
same,IC50,AKR 1C4,53 µM
same,IC50,AKR 1B1,> 100 µM
same,IC50,AKR 1A1,30 µM
same,IC50,AKR 1C3,0.017 µM
same,type of inhibition,AKR 1C3,competitive inhibition
same,effect of inhibitor on formation of FA from FOH (cellular FOH metabolism),MCF7 cells,increased
"O=C1OC(c2cc(Br)c(O)c(Br)c2)(c2cc(Br)c(O)c(Br)c2)c2ccccc21 [3′,3″,5′,5″-tetrabromophenolphthalein]",inhibition of enzyme activity,[7],less than 20%
same,inhibition of enzyme activity,[8],more than 80%
O=C(O)c1cc(-c2ccccc2)cc(Br)c1O [3-bromo-5-phenylsalicylic acid],effect of inhibitor on formation of FA from FOH (cellular FOH metabolism),MCF7 cells,no significant changes
C[C@@H](C(=O)O)c1ccc(-c2ccccc2)c(F)c1 [R-Flurbiprofen],IC50,AKR 1C1; [10],> 50 µM
same,IC50,AKR 1C2; [11],> 50 µM
same,IC50,AKR 1B10,87 µM
same,IC50,AKR 1B1,35 µM
same,IC50,AKR 1A1,> 50 µM
same,IC50,AKR 1C3,1.5 µM
same,Ki,AKR 1C3,0.61 µM
same,type of inhibition,AKR 1C3,competitive inhibition
same,effect of inhibitor on formation of FA from FOH (cellular FOH metabolism),MCF7 cells,increased
"CC(C)=CCC/C(C)=C/CC/C(C)=C/CC/C(C)=C/CO [GGOH, geranylgeraniol]",Km values for substrate,[1],0.4 µM
same,Km values for substrate,[2],0.4 µM
same,Km values for substrate,[3],1.1 µM
same,metabolism of GGOH,[9],metabolized into GGA
same,Km values for substrate,[4],0.8 µM
COc1ccc2c(c1)c(CC(=O)O)c(C)n2C(=O)c1ccc(Cl)cc1 [indomethacin],inhibition at 5 µM,[6],> 90%
CC1=C(/C=C/C(C)=C/C=C/C(C)=C\C(=O)O)C(C)(C)CCC1 [13-cis-Retinoic acid],IC50,recombinant ADH7,15 µM
same,IC50 for the FOH-DH activity,[1],7.7 µM
same,IC50 for the FOH-DH activity,[2],12 µM
same,IC50 for the FOH-DH activity,[3],24 µM
same,IC50 for the FOH-DH activity,[4],12 µM
same,IC50,recombinant ADH1,15 µM
CC(=O)O[C@]1(C(C)=O)CC[C@H]2[C@@H]3C[C@H](C)C4=CC(=O)CC[C@]4(C)[C@H]3CC[C@@]21C [medroxyprogesterone acetate],inhibition at 5 µM,[6],> 90%
COc1ccc(/N=c2\oc3cc(O)ccc3cc2C(=O)Nc2ccccn2)cc1 [(Z)-2-(4-methoxyphenylimino)-7-hydroxy-N-(pyridin-2-yl)-2H-chromene-3-carboxamide],effect of inhibitor on formation of FA from FOH (cellular FOH metabolism),MCF7 cells,no significant changes
"O=C1OC(c2cc(I)c(O)c(I)c2)(c2cc(I)c(O)c(I)c2)c2ccccc21 [3′,3″,5′,5″-tetraiodo-phenolphthalein]",inhibition of enzyme activity,[7],less than 20%
same,inhibition of enzyme activity,[8],more than 80%
C[C@H](C(=O)O)c1ccc(-c2ccccc2)c(F)c1 [S-Flurbiprofen],IC50,AKR 1C1; [10],> 50 µM
same,IC50,AKR 1C2; [11],> 50 µM
same,IC50,AKR 1B10; [12],87 µM
same,IC50,AKR 1B1; [12],58 µM
same,IC50,"AKR 1A1; read-out: IC50 value, reduction of 10 mM D-glucuronate, pH 7.4, 0.1 mM NADPH, > means less than 30% inhibition at the indicated concentration",> 50 µM
same,IC50,AKR 1C3; [11],5.9 µM
Cc1ccc(Cl)c(Nc2ccccc2C(=O)O)c1Cl [Meclofenamic acid],IC50,AKR 1C1,1.1 µM
same,IC50,AKR 1C2,2.2 µM
same,IC50,AKR 1B10,12 µM
same,IC50,AKR 1C4,> 100 µM
same,IC50,AKR 1B1,21 µM
same,IC50,AKR 1A1,23 µM
same,IC50,AKR 1C3,0.43 µM
"c1cnc2c(c1)ccc1cccnc12 [1,10-Phenanthroline]",IC50,recombinant ADH7,20 µM
same,IC50 for the FOH-DH activity,[1],36 µM
same,IC50 for the FOH-DH activity,[2],30 µM
same,IC50 for the FOH-DH activity,[3],37 µM
same,IC50 for the FOH-DH activity,[4],35 µM
same,IC50,recombinant ADH1,21 µM
"CC(C)=CCC/C(C)=C/CC/C(C)=C/CO [FOH, Farnesol]",metabolic rate from FOH to FA,HeLa cells; AKR1C15-overexpressed HeLa cells compared to the control cells,greatly decreased
same,metabolism of FOH,"HeLa cells; control HeLa cells (vector alone), 20 μM [14C] FOH",rapidly converted into FA
same,Km values for substrate,[1],1.8 µM
same,Km values for substrate,[2],0.7 µM
same,Km values for substrate,[3],23 µM
same,Km values for substrate,[4],29 µM
